# From patent publication US20090048258A1, “Amide Compound” (priority 2005, published 2009)
# Like-named read-outs stand apart in the source and are kept apart here.
# Molecular target: T1, Human DGAT1 (Homo sapiens, UniProt O75907)
# T1 construct: my translation of the primer: M-G-DYKDDDD-GDRGSSRRR) (N); made in house; host or cells: Sf9 insect cells (recombinant baculovirus BAC-DGAT1, pFASTBAC1); microsome fraction
# T1 sequence (O75907 1-488): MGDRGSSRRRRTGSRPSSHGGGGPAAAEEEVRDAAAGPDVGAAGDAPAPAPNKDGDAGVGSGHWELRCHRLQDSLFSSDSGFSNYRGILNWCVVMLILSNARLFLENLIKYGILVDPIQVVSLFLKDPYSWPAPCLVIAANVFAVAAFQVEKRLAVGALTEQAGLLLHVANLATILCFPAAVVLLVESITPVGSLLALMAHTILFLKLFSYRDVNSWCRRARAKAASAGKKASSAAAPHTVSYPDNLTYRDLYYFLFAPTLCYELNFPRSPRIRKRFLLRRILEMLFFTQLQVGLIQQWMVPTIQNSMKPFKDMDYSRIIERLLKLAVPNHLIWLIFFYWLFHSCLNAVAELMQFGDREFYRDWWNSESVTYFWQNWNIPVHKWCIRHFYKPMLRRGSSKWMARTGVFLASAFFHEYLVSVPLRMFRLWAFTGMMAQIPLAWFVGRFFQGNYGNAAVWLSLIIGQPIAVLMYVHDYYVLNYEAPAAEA
# Test: DGAT inhibitory activity: [14C]-triglyceride synthesis by DGAT1 high expression Sf9 microsome
# Format: biochemical
# Conditions: 25 μM [14C]-Oleoyl-CoA, 32° C., 15 min, read-out: DGAT inhibitory activity (according to IC50)
# Summary of the method: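 DGAT1 was overexpressed from recombinant baculovirus in Sf9 cells, and microsomes from these cells were the enzyme source. Reactions ran in 100 mM Tris-HCl pH 7.5, 250 mM sucrose, 150 mM MgCl2 and 0.01% BSA. [14C]-triglyceride was extracted into chloroform, separated by TLC and quantified by imaging plate, with inhibition calculated against control and blank (no microsome) counts.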
# [1] = Table 1, 25 μM dioleoylglycerol
# [2] = Table 2, 25 μM dioleoylglycerol
IC50 [1] [nM],IC50 [2] [nM],SMILES
50 to 500,–,"CCOc1ccc(C(=O)CCC(=O)Nc2cc(-c3ccc(F)cc3)cc(-c3ccccc3)n2)cc1OCC [Example 43, 4-(3,4-diethoxyphenyl)-N-(4-(4-fluorophenyl)-6-phenylpyridin-2-yl)-4-oxobutanamide]"
50 to 500,–,"COc1ccc(C(=O)CCC(=O)Nc2cc(-c3ccccc3)c(Cc3ccccc3)s2)cc1CCCOC(C)=O [Example 53, 3-(5-{4-[(5-benzyl-4-phenyl-2-thienyl)amino]-4-oxobutanoyl}-2-methoxyphenyl)propyl acetate]"
50 to 500,–,"CCOc1ccc(C(=O)CCC(=O)Nc2cc(-c3ccccc3)c(Cc3ccccc3)s2)cc1 [Example 44, N-(5-benzyl-4-phenyl-2-thienyl)-4-(4-ethoxyphenyl)-4-oxobutanamide]"
–,50 to 500,"CCOc1ccc(C(=O)CCC(=O)Nc2cc(-c3ccccc3)c3ccc(Br)cc3n2)cc1OCC [Example 81, N-(7-bromo-4-phenylquinolin-2-yl)-4-(3,4-diethoxyphenyl)-4-oxobutanamide]"
500 to 10000,–,"CCOc1ccc(C(=O)CCC(=O)Nc2cc(-c3ccccc3)nc(-c3ccccc3)c2)cc1OCC [Example 12, 4-(3,4-diethoxyphenyl)-N-(2,6-diphenylpyridin-4-yl)-4-oxobutanamide]"
–,10 to 50,"O=C(CCC(=O)c1ccc2c(c1)CCO2)Nc1cc(-c2cccc(O)c2)cc(-c2ccccc2)n1 [Example 165, 4-(2,3-dihydro-1-benzofuran-5-yl)-N-[4-(3-hydroxyphenyl)-6-phenylpyridin-2-yl]-4-oxobutanamide]"
–,500 to 10000,"O=C(CCC(=O)c1ccc2c(c1)CCO2)Nc1cc(-c2ccc(CN3CCOCC3)cc2)cc(-c2ccccc2)n1 [Example 161, 4-(2,3-dihydro-1-benzofuran-5-yl)-N-{4-[4-(morpholin-4-ylmethyl)phenyl]-6-phenylpyridin-2-yl}-4-oxobutanamide]"
≤ 10,–,"O=C(CCC(=O)c1ccc2c(c1)CCCC2)Nc1nc(-c2ccccc2)c(Cc2ccccc2)s1 [Example 7, N-(5-benzyl-4-phenyl-1,3-thiazol-2-yl)-4-oxo-4-(5,6,7,8-tetrahydronaphthalen-2-yl)butanamide]"
–,500 to 10000,"CCOc1ccc(C(=O)CCC(=O)Nc2cc(-c3ccccc3C(=O)O)cc(-c3ccccc3)n2)cc1OCC [Example 148, 2-(2-{[4-(3,4-diethoxyphenyl)-4-oxobutanoyl]amino}-6-phenylpyridin-4-yl)benzoic acid]"
–,50 to 500,"CCOc1ccc(C(=O)CCC(=O)Nc2cc(-c3ccccc3)c3ccc(/C=C/C(=O)O)cc3n2)cc1OCC [Example 83, (2E)-3-(2-{[4-(3,4-diethoxyphenyl)-4-oxobutanoyl]amino}-4-phenylquinoline-7-yl)acrylic acid]"
–,10 to 50,"COc1cc(-c2cc(NC(=O)CCC(=O)c3ccc4c(c3)CCO4)nc(-c3ccccc3)c2)ccc1O [Example 181, 4-(2,3-dihydro-1-benzofuran-5-yl)-N-[4-(4-hydroxy-3-methoxyphenyl)-6-phenylpyridin-2-yl]-4-oxobutanamide]"
–,50 to 500,"CCOc1ccc(C(=O)CCC(=O)Nc2cc(-c3cccc(C(C)=O)c3)cc(-c3ccccc3)n2)cc1OCC [Example 140, N-[4-(3-acetylphenyl)-6-phenylpyridin-2-yl]-4-(3,4-diethoxyphenyl)-4-oxobutanamide]"
50 to 500,–,"CCCc1ccc(C(=O)CCC(=O)Nc2nc(-c3ccccc3)c(Cc3ccccc3)s2)cc1 [Example 26, N-(5-benzyl-4-phenyl-1,3-thiazol-2-yl)-4-oxo-4-(4-propylphenyl)butanamide]"
–,50 to 500,"O=C(CCC(=O)c1ccc2c(c1)CCCC2)Nc1cc(-c2ccccc2)c2cc(Cl)ccc2n1 [Example 75, N-(6-chloro-4-phenylquinolin-2-yl)-4-oxo-4-(5,6,7,8-tetrahydronaphthalen-2-yl)butanamide]"
–,500 to 10000,"O=C(CCC(=O)c1ccc2c(c1)CCO2)Nc1cc(-c2cccc(C(=O)O)c2)cc(-c2ccccc2)n1 [Example 169, 3-(2-{[4-(2,3-dihydro-1-benzofuran-5-yl)-4-oxobutanoyl]amino}-6-phenylpyridin-4-yl)benzoic acid]"
–,10 to 50,"CCOc1ccc(C(=O)CCC(=O)Nc2cc(-c3ccc(C)cc3)c3cc(Br)ccc3n2)cc1OCC [Example 76, N-[6-bromo-4-(4-methylphenyl)quinolin-2-yl]-4-(3,4-diethoxyphenyl)-4-oxobutanamide]"

IC50 [1] [nM],IC50 [2] [nM],SMILES
–,10 to 50,"CCOc1ccc(C(=O)CCC(=O)Nc2cc(-c3cc(C)c(O)c(C)c3)cc(-c3ccccc3)n2)cc1OCC [Example 151, 4-(3,4-diethoxyphenyl)-N-[4-(4-hydroxy-3,5-dimethylphenyl)-6-phenylpyridin-2-yl]-4-oxobutanamide]"
50 to 500,–,"CCc1cc(C(=O)CCC(=O)Nc2cc(-c3ccccc3)c(Cc3ccccc3)s2)ccc1OC [Example 55, N-(5-benzyl-4-phenyl-2-thienyl)-4-(3-ethyl-4-methoxyphenyl)-4-oxobutanamide]"
50 to 500,–,"CCOc1ccc(C(=O)CCC(=O)Nc2cc(OCc3ccccc3)cc(-c3ccccc3)n2)cc1OCC [Example 42, 4-(3,4-diethoxyphenyl)-N-(4-(benzyloxy)-6-phenylpyridin-2-yl)-4-oxobutanamide]"
50 to 500,–,"O=C(CCC(=O)c1ccc(O)cc1)Nc1nc(-c2ccccc2)c(Cc2ccccc2)s1 [Example 33, N-(5-benzyl-4-phenyl-1,3-thiazol-2-yl)-4-(4-hydroxyphenyl)-4-oxobutanamide]"
–,10 to 50,"O=C(CCC(=O)c1ccc2c(c1)CCO2)Nc1cc(-c2ccccc2O)cc(-c2ccccc2)n1 [Example 177, 4-(2,3-dihydro-1-benzofuran-5-yl)-N-[4-(2-hydroxyphenyl)-6-phenylpyridin-2-yl]-4-oxobutanamide]"
–,500 to 10000,"CCOc1ccc(C(=O)CCC(=O)Nc2cc(-c3cccc(C(=O)O)c3)cc(-c3ccccc3)n2)cc1OCC [Example 138, 3-(2-{[4-(3,4-diethoxyphenyl)-4-oxobutanoyl]amino}-6-phenylpyridin-4-yl)benzoic acid]"
–,≤ 10,"CCOc1ccc(C(=O)CCC(=O)Nc2cc(-c3ccc(O)cc3)cc(-c3ccccc3)n2)cc1OCC [Example 123, 4-(3,4-diethoxyphenyl)-N-[4-(4-hydroxyphenyl)-6-phenylpyridin-2-yl]-4-oxobutanamide]"
10 to 50,–,"CCOC(=O)/C=C/c1cc(C(=O)CCC(=O)Nc2nc(-c3ccccc3)c(Cc3ccccc3)s2)ccc1OCC [Example 30, ethyl (2E)-3-(5-{4-[(5-benzyl-4-phenyl-1,3-thiazol-2-yl)amino]-4-oxobutanoyl}-2-ethoxyphenyl)acrylate]"
–,500 to 10000,"CCOc1ccc(C(=O)CCC(=O)Nc2cc(-c3cc(OC)c(OC)c(OC)c3)cc(-c3ccccc3)n2)cc1OCC [Example 150, 4-(3,4-diethoxyphenyl)-4-oxo-N-[6-phenyl-4-(3,4,5-trimethoxyphenyl)pyridin-2-yl]butanamide]"
–,10 to 50,"COC(=O)CCc1cccc(-c2cc(NC(=O)CCC(=O)c3ccc4c(c3)CCO4)nc(-c3ccccc3)c2)c1 [Example 173, methyl 3-[3-(2-{[4-(2,3-dihydro-1-benzofuran-5-yl)-4-oxobutanoyl]amino}-6-phenylpyridin-4-yl)phenyl]propanoate]"
–,50 to 500,"CCCc1cc(C(=O)CCC(=O)Nc2cc(-c3ccccc3)c(Cc3ccccc3)s2)ccc1OCC [Example 97, N-(5-benzyl-4-phenyl-2-thienyl)-4-(4-ethoxy-3-propylphenyl)-4-oxobutanamide]"
–,50 to 500,"O=C(CCC(=O)c1ccc2c(c1)CCO2)Nc1cc(-c2cccc(CCCO)c2)cc(-c2ccccc2)n1 [Example 168, 4-(2,3-dihydro-1-benzofuran-5-yl)-N-{4-[3-(3-hydroxypropyl)phenyl]-6-phenylpyridin-2-yl}-4-oxobutanamide]"
–,≤ 10,"CCOc1ccc(C(=O)CCC(=O)Nc2cc(-c3ccccc3OC)cc(-c3ccccc3)n2)cc1OCC [Example 146, 4-(3,4-diethoxyphenyl)-N-[4-(2-methoxyphenyl)-6-phenylpyridin-2-yl]-4-oxobutanamide]"
–,10 to 50,"O=C(CCC(=O)c1ccc2c(c1)OCCCO2)Nc1nc(-c2ccccc2)c(Cc2ccccc2)s1 [Example 68, N-(5-benzyl-4-phenyl-1,3-thiazol-2-yl)-4-(3,4-dihydro-2H-1,5-benzodioxepin-7-yl)-4-oxobutanamide]"
–,500 to 10000,"COC(=O)/C=C/c1ccc(-c2cc(NC(=O)CCC(=O)c3ccc4c(c3)CCO4)nc(-c3ccccc3)c2)cc1 [Example 159, methyl (2E)-3-[4-(2-{[4-(2,3-dihydro-1-benzofuran-5-yl)-4-oxobutanoyl]amino}-6-phenylpyridin-4-yl)phenyl]acrylate]"
–,500 to 10000,"O=C(CCC(=O)c1ccc2c(c1)CCO2)Nc1cc(-c2ccncc2)cc(-c2ccccc2)n1 [Example 116, 4-(2,3-dihydro-1-benzofuran-5-yl)-4-oxo-N-(6-phenyl-4,4′-bipyridin-2-yl)butanamide]"
